The test system of one data set is HIV-2 (ROD). Description: Anti-HIV-2 (ROD) activity in MT-4 cells, MTT assay. To be noted: Human immunodeficiency virus 2, MT4, 50% protection against HIV-induced cytotoxicity. It counts as cell-based. As for the experimental part:
(§1) II. In vitro anti-HIV Assay in MT-4 Cells
(§2) Evaluation of the antiviral activity of the compounds against HIV in MT-4 cells was performed using the MTT assay as described below. Stock solutions (10 × final concentration) of test compounds were added in 25 µL volumes to two series of triplicate wells to allow simultaneous evaluation of their effects on mock- and HIV-infected cells at the beginning of each experiment. Serial 5-fold dilutions of test compounds were made directly in flat-bottomed 96-well microtiter trays using a Biomek 3000 robot (Beckman Instruments, Fullerton, CA). Untreated HIV- and mock-infected cell samples were included as controls. HIV stock (50 µL) at 100-300 CCID50 (50 % cell culture infectious doses) or culture medium was added to either the infected or mock-infected wells of the microtiter tray. Mock-infected cells were used to evaluate the effects of the test compound on uninfected cells to assess the test compounds' cytotoxicity. Exponentially growing MT-4 cells were centrifuged for 5 minutes at 220 g, and the supernatant was discarded. […]
(§3) cells/mL, and 50 µL volumes were transferred to the microtiter tray wells. Five days after infection, the viability of mock-and HIV-infected cells was examined spectrophotometrically using the MTT assay. The MTT assay is based on the reduction of yellow colored 3-(4,5-dimethylthiazol-2-yl)-2,5-diphenyltetrazolium bromide (MTT) (Acros Organics) by mitochondrial dehydrogenase activity in metabolically active cells to a blue-purple formazan that can be measured spectrophotometrically. The absorbances were read in an eight-channel computer-controlled photometer (Infinite M1000, Tecan), at two wavelengths (540 and 690 nm). All data were calculated using the median absorbance value of three wells. […]
(§4) was defined as the concentration of the test compound that reduced the absorbance (OD540) of the mock-infected control sample by 50%. The concentration achieving 50% protection against the cytopathic effect of the virus in infected cells was defined as the […]
In general terms: Tetrazolium assays rely on reduction of a dye to a coloured formazan, in cell work by metabolically active cells.

The subject of another data set is HIV-1 (IIIB). Description: microbe, parasite or virus in culture. The conditions noted are these: Human immunodeficiency virus 1, MT4, 50% protection against HIV-induced cytotoxicity, MT-4 cells, MTT. Type of data set: cell-based. As for the experimental part:
as §1, §2, §3, §4

Another data set deals with MT-4 cells. Nature of the data set: Cytotoxicity in mock-infected MT-4 cells, MTT assay. It counts as cell-based. To be noted: 50% reduction of viability of mock-infected MT-4 cells. As for the experimental part: (§5) II. In vitro anti-HIV Assay in MT-4 Cells […]
(§6) performed using the MTT assay as described below. Stock solutions (10 × final concentration) of test compounds were added in 25 µL volumes to two series of […]
(§7) infected cells at the beginning of each experiment. Serial 5-fold dilutions of test […]
(§8) Biomek 3000 robot (Beckman Instruments, Fullerton, CA). Untreated HIV- and mock-infected cell samples were included as controls. HIV stock (50 µL) at 100-300 CCID50 […]
(§9) or mock-infected wells of the microtiter tray. Mock-infected cells were used to evaluate […]
(§10) cytotoxicity. Exponentially growing MT-4 cells were centrifuged for 5 minutes at 220 g, and the supernatant was discarded. […]
(§11) cells/mL, and 50 µL volumes were transferred to the microtiter tray wells. Five days […]
(§12) spectrophotometrically using the MTT assay. The MTT assay is based on the reduction […]
(§13) M1000, Tecan), at two wavelengths (540 and 690 nm). All data were calculated using the median absorbance value of three wells.
(§14) (OD540) of the mock-infected control sample by 50%. The concentration achieving 50%

Test in data set [1]: as above
It counts as cell-based. To be noted: human, 50% reduction of viability of mock-infected MT-4 cells. As for the experimental part:
as §5, §6, §7, §8, §9, §10, §11, §12, §13, §14

A short description of a further data set: in vitro. To be noted: both, human, plasma.

Where only a bound is given, the exact number is not on record here.

In general, EC50 refers to the concentration needed to bring the measured effect to its halfway point. A word on the CC50: it is the concentration that lowers cell viability or growth by half. The half-life is the time needed for the level to fall by half in the phase considered. Read a high half-life as slow decline. A word on the amount remaining: it is the share of the starting amount still present when the sample was taken. Lower therefore signals more turnover.

On to `COc1ccc(N(C)C(=O)[C@H](Cc2ccccc2)NC(=O)CN2CCN(C(=O)Cc3c(C)[nH]c4ccccc34)CC2=O)cc1` [7a, (S)-N-(4-methoxyphenyl)-N-methyl-2-(2-(4-(2-(2-methyl-1H-indol-3-yl)acetyl)-2-oxopiperazin-1-yl)acetamido)-3-phenylpropanamide], for which the EC50 was determined as 7.74 ± 0.79 µM in the data set with HIV-2 (ROD) and 14.3 ± 0.76 µM in the data set with HIV-1 (IIIB). In the data set with MT-4 cells, this compound showed a CC50 of 108 ± 3.26 µM.
On the same counts, the results for `COc1ccc(N(C)C(=O)[C@H](Cc2ccccc2)NC(=O)CN2CCN(C(=O)Cc3c[nH]c4ccc(OC)cc34)CC2=O)cc1` [7b, (S)-2-(2-(4-(2-(5-methoxy-1H-indol-3-yl)acetyl)-2-oxopiperazin-1-yl)acetamido)-N-(4-methoxyphenyl)-N-methyl-3-phenylpropanamide] are 16.9 ± 3.58 µM, 14.6 ± 0.39 µM and 104 ± 3.37 µM.
For `COc1ccc(N(C)C(=O)[C@H](Cc2ccccc2)NC(=O)CN2CCN(C(=O)Cc3c[nH]c4ccc(Br)cc34)CC2=O)cc1` [7c, (S)-2-(2-(4-(2-(5-bromo-1H-indol-3-yl)acetyl)-2-oxopiperazin-1-yl)acetamido)-N-(4-methoxyphenyl)-N-methyl-3-phenylpropanamide], the EC50 in the data set on HIV-2 (ROD) and with HIV-1 (IIIB) was over 16.4 µM each time. In the data set with MT-4 cells, this compound gave a CC50 of 16.4 ± 3.44 µM.
Take `COc1ccc(N(C)C(=O)[C@H](Cc2ccccc2)NC(=O)CN2CCN(C(=O)Cc3c[nH]c4ccccc34)CC2=O)cc1` [7d, (S)-2-(2-(4-(2-(1H-indol-3-yl)acetyl)-2-oxopiperazin-1-yl)acetamido)-N-(4-methoxyphenyl)-N-methyl-3-phenylpropanamide]: the EC50 with HIV-2 (ROD) was determined as 4.89 ± 1.39 µM; with HIV-1 (IIIB) it was 15 ± 0.24 µM. The compound further displayed a cytotoxic concentration (CC50) in the data set on MT-4 cells of 112 ± 3.22 µM.
For the compound `COc1ccc(N(C)C(=O)[C@H](Cc2ccccc2)NC(=O)CN2CCN(C(=O)Cc3c[nH]c4ccc(O)cc34)CC2=O)cc1` [7e, (S)-2-(2-(4-(2-(5-hydroxy-1H-indol-3-yl)acetyl)-2-oxopiperazin-1-yl)acetamido)-N-(4-methoxyphenyl)-N-methyl-3-phenylpropanamide], the EC50 in the data set on HIV-2 (ROD) stood at 186 ± 4.42 µM; in the data set with HIV-1 (IIIB), 198 ± 9.74 µM. The same compound returned a CC50 at 5 days in data set [1] of over 209 µM.
For the compound `COc1ccc(N(C)C(=O)[C@H](Cc2ccccc2)NC(=O)CN2CCN(C(=O)Cc3c[nH]c4ccc(F)cc34)CC2=O)cc1` [7f, (S)-2-(2-(4-(2-(5-fluoro-1H-indol-3-yl)acetyl)-2-oxopiperazin-1-yl)acetamido)-N-(4-methoxyphenyl)-N-methyl-3-phenylpropanamide], the EC50 in the data set with HIV-2 (ROD) was determined as 4.52 ± 0.87 µM; with HIV-1 (IIIB) it was 21.8 ± 4.81 µM. The CC50 in the data set with MT-4 cells stood at 90.1 ± 15.7 µM.
As to `COc1ccc(N(C)C(=O)[C@H](Cc2ccccc2)NC(=O)CN2CCN(C(=O)c3ccc(NC(C)=O)cc3)CC2=O)cc1` [7g, (S)-2-(2-(4-(4-acetamidobenzoyl)-2-oxopiperazin-1-yl)acetamido)-N-(4-methoxyphenyl)-N-methyl-3-phenylpropanamide], the EC50 with HIV-2 (ROD) is 184 ± 19.3 µM; in the data set on HIV-1 (IIIB), 203 ± 11 µM. In addition, in data set [1], the CC50 at 5 days was over 213 µM.
On to `COc1ccc(N(C)C(=O)[C@H](Cc2ccccc2)NC(=O)CN2CCN(C(=O)c3ccc(NC(=O)C4CC4)cc3)CC2=O)cc1` [7i, (S)-N-(4-(4-(2-((1-((4-methoxyphenyl)(methyl)amino)-1-oxo-3-phenylpropan-2-yl)amino)-2-oxoethyl)-3-oxopiperazine-1-carbonyl)phenyl)cyclopropanecarboxamide], for which the figures for the EC50 with HIV-2 (ROD) and with HIV-1 (IIIB) were 15 ± 2.27 µM and over 168 µM, respectively. The compound also registered a CC50 in the data set with MT-4 cells of 168 ± 19.8 µM.
`COc1ccc(N(C)C(=O)[C@H](Cc2cc(F)cc(F)c2)NC(=O)CN2CCN(C(=O)Cc3c(C)[nH]c4ccccc34)CC2=O)cc1` [F2-7a, (S)-3-(3,5-difluorophenyl)-N-(4-methoxyphenyl)-N-methyl-2-(2-(4-(2-(2-methyl-1H-indol-3-yl)acetyl)-2-oxopiperazin-1-yl)acetamido)propenamide]: the values for the EC50 in the data set on HIV-2 (ROD) and with HIV-1 (IIIB) were 19.7 ± 6.59 µM and 20.8 ± 5.09 µM, respectively. The compound further returned a CC50 in the data set on MT-4 cells of 76.9 ± 20 µM.
The like results for `COc1ccc(N(C)C(=O)[C@H](Cc2cc(F)cc(F)c2)NC(=O)CN2CCN(C(=O)Cc3c[nH]c4ccc(OC)cc34)CC2=O)cc1` [F2-7b, (S)-3-(3,5-difluorophenyl)-2-(2-(4-(2-(5-methoxy-1H-indol-3-yl)acetyl)-2-oxopiperazin-1-yl)acetamido)-N-(4-methoxyphenyl)-N-methylpropanamide] were, in that order, over 15.9 µM, over 15.9 µM and 15.9 ± 3.83 µM.
On the same counts, the results for `COc1ccc(N(C)C(=O)[C@H](Cc2cc(F)cc(F)c2)NC(=O)CN2CCN(C(=O)Cc3c[nH]c4ccc(Br)cc34)CC2=O)cc1` [F2-7c, (S)-2-(2-(4-(2-(5-bromo-1H-indol-3-yl)acetyl)-2-oxopiperazin-1-yl)acetamido)-3-(3,5-difluorophenyl)-N-(4-methoxyphenyl)-N-methylpropanamide] are over 3.15 µM, over 3.15 µM and 3.15 ± 0.4 µM.
Turning to `COc1ccc(N(C)C(=O)[C@H](Cc2cc(F)cc(F)c2)NC(=O)CN2CCN(C(=O)Cc3c[nH]c4ccccc34)CC2=O)cc1` [F2-7d, (S)-2-(2-(4-(2-(1H-indol-3-yl)acetyl)-2-oxopiperazin-1-yl)acetamido)-3-(3,5-difluorophenyl)-N-(4-methoxyphenyl)-N-methylpropanamide], the EC50 came out at 17.6 ± 9.14 µM in the data set with HIV-2 (ROD) and 29.4 ± 7.03 µM in the data set with HIV-1 (IIIB). In the data set on MT-4 cells, this compound returned a CC50 of 57.8 ± 21.8 µM.
On the same counts, the results for `COc1ccc(N(C)C(=O)[C@H](Cc2cc(F)cc(F)c2)NC(=O)CN2CCN(C(=O)Cc3c[nH]c4ccc(O)cc34)CC2=O)cc1` [F2-7e, (S)-3-(3,5-difluorophenyl)-2-(2-(4-(2-(5-hydroxy-1H-indol-3-yl)acetyl)-2-oxopiperazin-1-yl)acetamido)-N-(4-methoxyphenyl)-N-methylpropanamide] are at least 49.6 µM, over 132 µM and 132 ± 33 µM.
For `COc1ccc(N(C)C(=O)[C@H](Cc2cc(F)cc(F)c2)NC(=O)CN2CCN(C(=O)c3ccc(NC(C)=O)cc3)CC2=O)cc1` [F2-7g, (S)-2-(2-(4-(4-acetamidobenzoyl)-2-oxopiperazin-1-yl)acetamido)-3-(3,5-difluorophenyl)-N-(4-methoxyphenyl)-N-methylpropanamide], the EC50 in the data set on HIV-2 (ROD) came out at 192 ± 4.57 µM; in the data set with HIV-1 (IIIB), 177 ± 16.6 µM. Moreover, the CC50 in the data set on MT-4 cells turned out to be 196 ± 6.8 µM.
The like results for `COc1ccc(N(C)C(=O)[C@H](Cc2cc(F)cc(F)c2)NC(=O)CN2CCN(C(=O)c3ccc(NC(=O)C4CC4)cc3)CC2=O)cc1` [F2-7i, (S)-N-(4-(4-(2-((3-(3,5-difluorophenyl)-1-((4-methoxyphenyl)(methyl)amino)-1-oxopropan-2-yl)amino)-2-oxoethyl)-3-oxopiperazine-1-carbonyl)phenyl)cyclopropanecarboxamide] were, in that order, 15.1 ± 0.68 µM, 14.4 ± 1.31 µM and 88.6 ± 11.3 µM.
On the same counts, the results for `COc1ccc(N(C)C(=O)[C@H](Cc2cc(F)cc(F)c2)NC(=O)CN2CCN(C(=O)c3ccc(NC(=O)C(F)(F)F)cc3)CC2=O)cc1` [F2-7j, (S)-3-(3,5-difluorophenyl)-N-(4-methoxyphenyl)-N-methyl-2-(2-(2-oxo-4-(4-(2,2,2-trifluoroacetamido)benzoyl)piperazin-1-yl)acetamido)propenamide] are 16.6 ± 6.13 µM, 13.7 ± 0.7 µM and 150 ± 25.5 µM.
In the data set “in vitro”, `Cc1[nH]c2ccccc2c1CC(=O)N[C@@H](Cc1ccccc1)C(=O)N(C)c1ccccc1` [PF74] yielded a half-life at 2 μM of over 289 min and a share remaining at 0 h, 2 μM of 100%.
On to `CC(C)[N+](C)(CCOC(=O)C1c2ccccc2Oc2ccccc21)C(C)C` [Propantheline bromide], for which, in “in vitro”, the half-life at 2 μM worked out at 11.2 min; the share remaining at 0 h, 2 μM was 100%; the fraction remaining at 10 min, 2 μM was 56.5%; the fraction remaining at 0.5 h, 2 μM worked out at 19.4%. Also, in “in vitro”, the fraction remaining at 1 h, 2 μM turned out to be 1.9% and the amount remaining at 2 h, 2 μM stood at 0.1%.

Source of the values: article PMC9739877, “Discovery and Mechanistic Investigation of Piperazinone Phenylalanine Derivatives with Terminal Indole or Benzene Ring as Novel HIV-1 Capsid Modulators” (Molecules, 2022).
